# Results: US20070042975A1, “Novel indolopyrrolocarbazole derivative with antitumor activity” (priority 2003, published 2007)
# Test system: MKN-45 (Human Stomach Cancer Cells)
# Experiment: Cell-growth suppressive effect against MKN-45 cells (WST-8 method)
# Type: cell-based
# Settings: 72 h, 3 days incubation with medicament, read-out: 50% Growth Inhibiting Activity (IC50, μM) MKN-45 Cells
# Description: (§1) Method for Judging the Pharmaceutical Effect using Cells
# (§2) Fetal calf serum (FCS) was purchased from Molgate and a DMEM medium was purchased from Asahi Techno Glass.
# (§3) MKN-45, human stomach cancer cell, was purchased from the Immune Biology Laboratory. HCT 116, human colorectal cancer cell, was purchased from the American Type Culture Collection (ATCC).
# (§4) Cells were suspended in a DMEM medium to which 10% of FCS were added, and a cell suspension was dispensed to a 96-well plastic plate to an extent of 1000 cells/50 microliters per well. Incubation was carried out at 37° C. for one night in 5% CO2-95% air. Each medicament was subjected to a gradient dilution using dimethyl sulfoxide or an appropriate solvent and each 50 microliters were dispensed to a microplate to which cells were sowed previously. Incubation was carried out for 3 days more at 37° C. in 5% CO2-95% air.
row,IC50 [µM],SMILES
1,0.004,"O=C1c2c(c3c4ccc(O)cc4n([C@@H]4O[C@H](CO)[C@@H](O)[C@H](O)[C@H]4O)c3c3[nH]c4cc(O)ccc4c23)C(=O)N1NCc1cc([N+](=O)[O-])c[nH]1 [Example 10, 6-N-(4-nitro-2-1H-pyrrolylmethyl)amino-12,13-dihydro-2,10-dihydroxy-12-β-D-glucopyranosyl-5H-indolo[2,3-a]pyrrolo[3,4-c]carbazole-5,7(6H)-dione]"
2,0.0012,"O=C1c2c(c3c4ccc(O)cc4n([C@@H]4O[C@H](CO)[C@@H](O)[C@H](O)[C@H]4O)c3c3[nH]c4cc(O)ccc4c23)C(=O)N1NCc1cc(CO)sc1CO [Example 4, 6-N-(2,5-dihydroxymethyl-3-thienylmethyl)amino-12,13-dihydro-2,10-dihydroxy-12-β-D-glucopyranosyl-5H-indolo[2,3-a]pyrrolo[3,4-c]carbazole-5,7(6H)-dione]"
3,0.0014,"O=C1c2c(c3c4ccc(O)cc4n([C@@H]4O[C@H](CO)[C@@H](O)[C@H](O)[C@H]4O)c3c3[nH]c4cc(O)ccc4c23)C(=O)N1NCc1ccnc2ccccc12 [Example 6, 6-N-(4-quinolinylmethylamino)-12,13-dihydro-2,10-dihydroxy-12-β-D-glucopyranosyl-5H-indolo[2,3-a]pyrrolo[3,4-c]carbazole-5,7(6H)-dione]"
4,0.0028,"O=C1c2c(c3c4ccc(O)cc4n([C@@H]4O[C@H](CO)[C@@H](O)[C@H](O)[C@H]4O)c3c3[nH]c4cc(O)ccc4c23)C(=O)N1NCc1cnccn1 [Example 5, 6-N-pyrazinylmethylamino-12,13-dihydro-2,10-dihydroxy-12-β-D-glucopyranosyl-5H-indolo-[2,3-a]pyrrolo[3,4-c]carbazole-5,7(6H)-dione]"
5,0.002,"O=C1c2c(c3c4ccc(O)cc4n([C@@H]4O[C@H](CO)[C@@H](O)[C@H](O)[C@H]4O)c3c3[nH]c4cc(O)ccc4c23)C(=O)N1NCc1ccc[nH]1 [Example 12, 6-N-(2-1H-pyrrolylmethyl)amino-12,13-dihydro-2,10-dihydroxy-12-β-D-glucopyranosyl-5H-indolo[2,3-a]pyrrolo[3,4-c]carbazole-5,7(6H)-dione]"

# Test system: HCT-116 (Human Colorectal Cancer Cells)
# Experiment: Cell-growth suppressive effect against HCT-116 cells (WST-8 method)
# Type: cell-based
# Settings: 72 h, 3 days incubation with medicament, read-out: 50% Growth Inhibiting Activity (IC50, μM) HCT-116 Cells
# Description: as §1, §2, §3, §4
row,IC50 [µM],SMILES
1,0.0023,"O=C1c2c(c3c4ccc(O)cc4n([C@@H]4O[C@H](CO)[C@@H](O)[C@H](O)[C@H]4O)c3c3[nH]c4cc(O)ccc4c23)C(=O)N1OCc1ccncc1 [Example 18, 6-N-(4-pyridylmethoxy)-12,13-dihydro-2,10-dihydroxy-12-β-D-glucopyranosyl-5H-indolo-[2,3-a]pyrrolo[3,4-c]carbazole-5,7(6H)-dione]"
2,0.0016,"O=C1c2c(c3c4ccc(O)cc4n([C@@H]4O[C@H](CO)[C@@H](O)[C@H](O)[C@H]4O)c3c3[nH]c4cc(O)ccc4c23)C(=O)N1NCc1c[nH]cn1 [Example 15, 6-N-(4-1H-imidazolylmethyl)amino-12,13-dihydro-2,10-dihydroxy-12-β-D-glucopyranosyl-5H-indolo[2,3-a]pyrrolo[3,4-c]carbazole-5,7(6H)-dione]"
3,0.00076,"O=C1c2c(c3c4ccc(O)cc4n([C@@H]4O[C@H](CO)[C@@H](O)[C@H](O)[C@H]4O)c3c3[nH]c4cc(O)ccc4c23)C(=O)N1OCc1ccncc1CO [Example 30, 6-N-(3-hydroxymethyl-4-pyridylmethoxy)-12,13-dihydro-2,10-dihydroxy-12-β-D-glucopyranosyl-5H-indolo[2,3-a]pyrrolo[3,4-c]carbazole-5,7(6H)-dione]"
4,0.0049,"COC(=O)c1cccc(CNN2C(=O)c3c(c4c5ccc(O)cc5n([C@@H]5O[C@H](CO)[C@@H](O)[C@H](O)[C@H]5O)c4c4[nH]c5cc(O)ccc5c34)C2=O)n1 [Example 16, 6-N-(2-methoxycarbonyl-6-pyridylmethyl)amino-12,13-dihydro-2,10-dihydroxy-12-β-D-glucopyranosyl-5H-indolo[2,3-a]pyrrolo[3,4-c]carbazole-5,7(6H)-dione]"
5,0.0037,"O=C1c2c(c3c4ccc(O)cc4n([C@@H]4O[C@H](CO)[C@@H](O)[C@H](O)[C@H]4O)c3c3[nH]c4cc(O)ccc4c23)C(=O)N1OCc1cccc(CO)n1 [Example 19, 6-N-(6-hydroxymethyl-2-pyridylmethoxy)-12,13-dihydro-2,10-dihydroxy-12-β-D-glucopyranosyl-5H-indolo[2,3-a]pyrrolo[3,4-c]carbazole-5,7(6H)-dione]"
6,0.0012,"O=C1c2c(c3c4ccc(O)cc4n([C@@H]4O[C@H](CO)[C@@H](O)[C@H](O)[C@H]4O)c3c3[nH]c4cc(O)ccc4c23)C(=O)N1NCc1cc[nH]n1 [Example 14, 6-N-(3-1H-pyrazolylmethyl)amino-12,13-dihydro-2,10-dihydroxy-12-β-D-glucopyranosyl-5H-indolo[2,3-a]pyrrolo[3,4-c]carbazole-5,7(6H)-dione]"
7,0.005,"O=C1c2c(c3c4ccc(O)cc4n([C@@H]4O[C@H](CO)[C@@H](O)[C@H](O)[C@H]4O)c3c3[nH]c4cc(O)ccc4c23)C(=O)N1CCc1ccncc1 [Example 39, 6-N-(2-(4-pyridyl)ethyl)-12,13-dihydro-2,10-dihydroxy-12-β-D-glucopyranosyl-5H-indolo-[2,3-a]pyrrolo[3,4-c]carbazole-5,7(6H)-dione]"
